Reference: PubChem BioAssay (NCI)
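Dose response: 5 concentrations. Exposure: 48 h. Format: 96-well plates. Endpoint: linear interpolation; highest concentration if not reached. At the GI50, growth is halved. TGI: concentration producing complete growth inhibition.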

Tests used:
Assay in all cases: inhibition of tumour cell growth, NCI panel, 48 h
SF-539 CNS = system: SF-539 CNS
COLO 205 colon = system: COLO 205 colon
IGROV1 ovarian = system: IGROV1 ovarian
PC-3 prostate = system: PC-3 prostate
786-0 renal = system: 786-0 renal
NCI-H23 lung = system: NCI-H23 lung
RPMI-8226 leukemia = system: RPMI-8226 leukemia
HT29 colon = system: HT29 colon
DU-145 prostate = system: DU-145 prostate
SNB-19 CNS = system: SNB-19 CNS
UO-31 renal = system: UO-31 renal
OVCAR-4 ovarian = system: OVCAR-4 ovarian
NCI-H226 lung = system: NCI-H226 lung
SK-MEL-5 melanoma = system: SK-MEL-5 melanoma
SF-295 CNS = system: SF-295 CNS
NCI/ADR-RES ovarian = system: NCI/ADR-RES ovarian
A498 renal = system: A498 renal
MDA-MB-231 breast = system: MDA-MB-231 breast
U251 CNS = system: U251 CNS
UACC-257 melanoma = system: UACC-257 melanoma
OVCAR-3 ovarian = system: OVCAR-3 ovarian
A549 NSCLC = system: A549 NSCLC
SNB-75 CNS = system: SNB-75 CNS
HCT-116 colon = system: HCT-116 colon
MCF7 breast = system: MCF7 breast
HOP-62 NSCLC = system: HOP-62 NSCLC
SK-MEL-2 melanoma = system: SK-MEL-2 melanoma
HOP-92 NSCLC = system: HOP-92 NSCLC
SK-MEL-28 melanoma = system: SK-MEL-28 melanoma
SN12C renal = system: SN12C renal
M14 melanoma = system: M14 melanoma
T-47D breast = system: T-47D breast
UACC-62 melanoma = system: UACC-62 melanoma
KM12 colon = system: KM12 colon
HCC-2998 colon = system: HCC-2998 colon
K-562 leukemia = system: K-562 leukemia
CCRF-CEM leukemia = system: CCRF-CEM leukemia
OVCAR-5 ovarian = system: OVCAR-5 ovarian
LOX IMVI melanoma = system: LOX IMVI melanoma
MDA-MB-435 = system: MDA-MB-435
SR leukemia = system: SR leukemia
RXF 393 renal = system: RXF 393 renal
CAKI-1 renal = system: CAKI-1 renal
SW-620 colon = system: SW-620 colon
BT-549 breast = system: BT-549 breast
EKVX NSCLC = system: EKVX NSCLC
HCT-15 colon = system: HCT-15 colon
ACHN renal = system: ACHN renal
NCI-H460 lung = system: NCI-H460 lung
MOLT-4 leukemia = system: MOLT-4 leukemia
OVCAR-8 ovarian = system: OVCAR-8 ovarian
HL-60(TB) leukemia = system: HL-60(TB) leukemia
SK-OV-3 ovarian = system: SK-OV-3 ovarian
MALME-3M melanoma = system: MALME-3M melanoma
SF-268 CNS = system: SF-268 CNS
TK-10 renal = system: TK-10 renal

In the case of `CCOC(=O)c1cn(-c2ccc(Cl)cc2)c(=O)n2c1nc1ccccc12`, the TGI (SF-539 CNS) is reported as greater than 100 µM, the TGI (COLO 205 colon) is reported as greater than 100 µM and the TGI (IGROV1 ovarian) is reported as greater than 100 µM. For the same compound, the TGI (PC-3 prostate) was greater than 100 µM, the TGI (786-0 renal) was greater than 100 µM and the TGI (NCI-H23 lung) was greater than 100 µM. It also gave a TGI (RPMI-8226 leukemia) greater than 100 µM, a TGI (HT29 colon) greater than 100 µM and a TGI (DU-145 prostate) greater than 100 µM. The TGI (SNB-19 CNS) was greater than 100 µM, the TGI (UO-31 renal) was greater than 100 µM and the TGI (OVCAR-4 ovarian) was greater than 100 µM. For the same compound, the TGI (NCI-H226 lung) was greater than 100 µM, the TGI (SK-MEL-5 melanoma) was greater than 100 µM and the TGI (SF-295 CNS) was greater than 100 µM. The TGI (NCI/ADR-RES ovarian) was greater than 100 µM, the TGI (A498 renal) was greater than 100 µM and the TGI (MDA-MB-231 breast) was greater than 100 µM. The TGI (U251 CNS) was greater than 100 µM, the TGI (UACC-257 melanoma) was greater than 100 µM and the TGI (OVCAR-3 ovarian) was greater than 100 µM. It also gave a TGI (A549 NSCLC) greater than 100 µM, a TGI (SNB-75 CNS) greater than 100 µM and a TGI (HCT-116 colon) greater than 100 µM. The TGI (MCF7 breast) was greater than 100 µM, the TGI (HOP-62 NSCLC) was greater than 100 µM and the TGI (SK-MEL-2 melanoma) was greater than 100 µM. The TGI (HOP-92 NSCLC) was greater than 100 µM, the TGI (SK-MEL-28 melanoma) was greater than 100 µM and the TGI (SN12C renal) was greater than 100 µM. It also gave a TGI (M14 melanoma) greater than 100 µM, a TGI (T-47D breast) greater than 100 µM and a TGI (UACC-62 melanoma) greater than 100 µM. The TGI (KM12 colon) was greater than 100 µM, the TGI (HCC-2998 colon) was greater than 100 µM and the TGI (K-562 leukemia) was greater than 100 µM. The TGI (CCRF-CEM leukemia) was greater than 100 µM, the TGI (OVCAR-5 ovarian) was greater than 100 µM and the TGI (LOX IMVI melanoma) was greater than 100 µM. The TGI (MDA-MB-435) was greater than 100 µM, the TGI (SR leukemia) was greater than 100 µM and the TGI (RXF 393 renal) was greater than 100 µM. It also gave a TGI (CAKI-1 renal) greater than 100 µM, a TGI (SW-620 colon) greater than 100 µM and a TGI (BT-549 breast) greater than 100 µM. For the same compound, the TGI (EKVX NSCLC) was greater than 100 µM, the TGI (HCT-15 colon) was greater than 100 µM and the TGI (ACHN renal) was greater than 100 µM. It also gave a TGI (NCI-H460 lung) greater than 100 µM, a TGI (MOLT-4 leukemia) greater than 100 µM and a TGI (OVCAR-8 ovarian) greater than 100 µM.
In the case of `CC[N+](CCCCCCCCCC[N+](CC)(c1ccccn1)c1ccccn1)(c1ccccn1)c1ccccn1`, the GI50 (SF-539 CNS) is reported as 1.72 µM, the TGI (SF-539 CNS) is reported as 14.1 µM and the GI50 (COLO 205 colon) is reported as 1.78 µM. It also gave a TGI (COLO 205 colon) of 11.6 µM, a GI50 (IGROV1 ovarian) of 2.07 µM and a TGI (IGROV1 ovarian) of 11.7 µM. The GI50 (PC-3 prostate) was 0.459 µM, the TGI (PC-3 prostate) was 11.2 µM and the GI50 (786-0 renal) was 3.76 µM. The TGI (786-0 renal) was 66.2 µM, the GI50 (NCI-H23 lung) was 0.696 µM and the TGI (NCI-H23 lung) was 17.9 µM. The GI50 (RPMI-8226 leukemia) was 0.267 µM, the TGI (RPMI-8226 leukemia) was 3.57 µM and the GI50 (HT29 colon) was 0.764 µM. It also gave a TGI (HT29 colon) of 12.1 µM, a GI50 (DU-145 prostate) of 0.858 µM and a TGI (DU-145 prostate) of 12.4 µM. It also gave a GI50 (SNB-19 CNS) of 0.761 µM, a TGI (SNB-19 CNS) of 27.3 µM and a GI50 (HL-60(TB) leukemia) of 0.554 µM. For the same compound, the TGI (HL-60(TB) leukemia) was 2.93 µM, the GI50 (UO-31 renal) was 2.09 µM and the TGI (UO-31 renal) was 12.6 µM. For the same compound, the GI50 (OVCAR-4 ovarian) was 1.01 µM, the TGI (OVCAR-4 ovarian) was greater than 100 µM and the GI50 (SK-OV-3 ovarian) was 2.22 µM. For the same compound, the TGI (SK-OV-3 ovarian) was 9.28 µM, the GI50 (NCI-H226 lung) was 2.04 µM and the TGI (NCI-H226 lung) was 22.3 µM. For the same compound, the GI50 (SF-295 CNS) was 0.668 µM, the TGI (SF-295 CNS) was 2.29 µM and the GI50 (MALME-3M melanoma) was 1.52 µM. The TGI (MALME-3M melanoma) was 17.7 µM, the GI50 (NCI/ADR-RES ovarian) was 5.28 µM and the TGI (NCI/ADR-RES ovarian) was 53.8 µM. For the same compound, the GI50 (A498 renal) was 1.02 µM, the TGI (A498 renal) was 5.58 µM and the GI50 (MDA-MB-231 breast) was 2.24 µM. It also gave a TGI (MDA-MB-231 breast) of 13.8 µM, a GI50 (U251 CNS) of 0.526 µM and a TGI (U251 CNS) of 24 µM. For the same compound, the GI50 (UACC-257 melanoma) was 0.745 µM, the TGI (UACC-257 melanoma) was 12.9 µM and the GI50 (OVCAR-3 ovarian) was 1.09 µM. It also gave a TGI (OVCAR-3 ovarian) of 10.1 µM, a GI50 (A549 NSCLC) of 0.456 µM and a TGI (A549 NSCLC) greater than 100 µM. For the same compound, the GI50 (SNB-75 CNS) was 1.25 µM, the TGI (SNB-75 CNS) was 32.2 µM and the GI50 (HCT-116 colon) was 0.851 µM. For the same compound, the TGI (HCT-116 colon) was greater than 100 µM, the GI50 (MCF7 breast) was 0.437 µM and the TGI (MCF7 breast) was 4.26 µM. For the same compound, the GI50 (HOP-62 NSCLC) was 2.15 µM, the TGI (HOP-62 NSCLC) was 9.15 µM and the GI50 (SK-MEL-2 melanoma) was 1.88 µM. It also gave a TGI (SK-MEL-2 melanoma) of 5.82 µM, a GI50 (SK-MEL-28 melanoma) of 2.48 µM and a TGI (SK-MEL-28 melanoma) of 15.2 µM. For the same compound, the GI50 (SN12C renal) was 0.431 µM, the TGI (SN12C renal) was 11 µM and the GI50 (M14 melanoma) was 2.57 µM. It also gave a TGI (M14 melanoma) of 30.5 µM, a GI50 (SF-268 CNS) of 1.02 µM and a TGI (SF-268 CNS) of 19.5 µM. The GI50 (T-47D breast) was 0.295 µM, the TGI (T-47D breast) was 1.7 µM and the GI50 (TK-10 renal) was 3.65 µM. For the same compound, the TGI (TK-10 renal) was 24.5 µM, the GI50 (UACC-62 melanoma) was 0.915 µM and the TGI (UACC-62 melanoma) was 7.34 µM. For the same compound, the GI50 (KM12 colon) was 0.739 µM, the TGI (KM12 colon) was 8 µM and the GI50 (HCC-2998 colon) was 1.95 µM. The TGI (HCC-2998 colon) was 27.2 µM, the GI50 (K-562 leukemia) was 0.49 µM and the TGI (K-562 leukemia) was 16 µM. For the same compound, the GI50 (CCRF-CEM leukemia) was 1.05 µM, the TGI (CCRF-CEM leukemia) was 8.78 µM and the GI50 (OVCAR-5 ovarian) was 1.86 µM. The TGI (OVCAR-5 ovarian) was 9.65 µM, the GI50 (LOX IMVI melanoma) was 1.5 µM and the TGI (LOX IMVI melanoma) was 4.29 µM. It also gave a GI50 (MDA-MB-435) of 0.609 µM, a TGI (MDA-MB-435) of 4.19 µM and a GI50 (SR leukemia) of 1.36 µM. For the same compound, the TGI (SR leukemia) was 22.1 µM, the GI50 (RXF 393 renal) was 2.5 µM and the TGI (RXF 393 renal) was 21.2 µM. It also gave a GI50 (CAKI-1 renal) of 2.61 µM, a TGI (CAKI-1 renal) of 9.92 µM and a GI50 (SW-620 colon) of 2.14 µM. For the same compound, the TGI (SW-620 colon) was 15.6 µM, the GI50 (BT-549 breast) was 0.973 µM and the TGI (BT-549 breast) was 88.9 µM. For the same compound, the GI50 (HCT-15 colon) was 3.2 µM, the TGI (HCT-15 colon) was 18.8 µM and the GI50 (ACHN renal) was 2.8 µM. It also gave a TGI (ACHN renal) of 12.9 µM, a GI50 (NCI-H460 lung) of 0.625 µM and a TGI (NCI-H460 lung) of 10.3 µM. For the same compound, the GI50 (MOLT-4 leukemia) was 2.28 µM, the TGI (MOLT-4 leukemia) was 13.2 µM and the GI50 (OVCAR-8 ovarian) was 2.11 µM. It also gave a TGI (OVCAR-8 ovarian) of 57.5 µM.
